Patent publication US9006394B2, “Peptide-presenting surfaces for long-term culture of pluripotent cells” (Wisconsin Alumni Research Foundation, priority 2008, dated 2015)
Ends that are not written are not given here.

Columns and labels:
[1] = Kyte & Doolittle; cited from earlier work
hESCs [2] = assay: Initial cell survival on SAMs with heregulin supplement; format: cell-based, human; settings: 10 ng/ml in mTeSR1
Procedure: hESCs were passaged to SAMs of peptide-AT conjugates on gold in mTeSR™1 optionally supplemented with 10 ng/ml heregulin-β1 (Peprotech; Rocky Hill, N.J.) and 5 μM Y-27632 (Calbiochem; San Diego, Calif.). […] Some surfaces presented peptide-AT conjugates of only vitronectin GBP (SEQ ID NO:1), fibronectin GBP (SEQ ID NO:2) or bone sialoprotein GBP (SEQ ID NO:3) Alternatively, some surfaces presented peptide-AT conjugates of only the integrin-binding peptide (SEQ ID NO:5), another bioactive peptide derived from fibronectin (SEQ ID NO:6), the FGF receptor binding peptide (SEQ ID NO:4), the laminin-derived bioactive peptide (SEQ ID NO:7), […] (SEQ ID NO: 8) or […] (SEQ ID NO: 9). Furthermore, some surfaces presented separate peptide-AT conjugates of the integrin-binding peptide (SEQ ID NO:5) and FGF receptor binding peptide (SEQ ID NO:4); the integrin-binding peptide (SEQ ID NO:5) and vitronectin GBP (SEQ ID NO:1); the integrin-binding peptide (SEQ ID NO:5) and bioactive peptide derived from fibronectin (SEQ ID NO:6); and the vitronectin GBP (SEQ ID NO:1) and […] (SEQ ID NO: 9). The density of the peptides on the surface varied from 0.5% to 25% (see, FIG. 1).

hESCs [3] = assay: Culture on other chemically defined surfaces (streptavidin plates, polyacrylamide gels, glass coverslips); format: cell-based, human
Description: Moreover, some hESCs were passaged to streptavidin-coated plates treated with biotinylated vitronectin GBP (SEQ ID NO:1) or polyacrylamide gels cross-linked to vitronectin GBP (SEQ ID NO:1).

[4] = test system: hES cells (H9 and H13) and vector-free iPS cells (DF19-9); assay: Cell growth over two passages (Cell Counting Kit-8); format: cell-based, human
Procedure: hESCs (H9) were cultured on Matrigel, vitronectin, polylysine, […] (SEQ ID NO: 1), or KGRGDS (SEQ ID NO: 5) over two passages in mTeSR media supplemented with 5 μm ROCK inhibitor. Cell counts were calculated at each time point using Cell Counting Kit-8 (Dojindo Molecular Technologies, Inc., Rockville, Md.).

hESCs [5] = assay: Flow cytometry of pluripotent cell-specific markers after three passages on SAMs; format: cell-based, human; settings: for pluripotent cell-specific marker expression (Oct-4, SSEA-3, SSEA-4) after 3 passages: 3 passages on SAMs
Procedure: The density of the peptides on the surface varied from 0.5% to 25% (see, FIG. 1).
Regardless of the nature of the chemically defined surface or peptide(s) attached thereto, about 5×10^4 cells/ml were manually passaged to a fresh chemically defined surface every 5-7 days (i.e., at confluency) after treatment with an Enzyme-Free Cell Dissociation Buffer (Sigma; St. Louis, Mo.; a phosphate-buffered saline (PBS)+ethylenediamine tetraacetic acid (EDTA) 0.02% wt/vol) for 10-15 minutes. After three passages (about 21 days), the cells were evaluated for pluripotent cell-specific markers by flow cytometry.
hESCs were dissociated with 0.05% trypsin-EDTA with 2% chicken serum (Gibco). Cell surface marker staining was performed in PBS containing 2% BSA (wt/vol) at 4° C. for 30 minutes with directly conjugated antibodies against alkaline phosphatase (R&D Systems), Tra 1-60 (BD Biosciences), Tra 1-81 (BD Biosciences), SSEA-4 (BD Biosciences), SSEA-3 (BD Biosciences), SSEA-1 (R&D Systems) followed by a 30 minute fixation with 2% formaldehyde/PBS at room temperature.
For intracellular marker staining, hESCs were fixed with 2% formaldehyde/PBS at room temperature for 30 minutes. For Oct-4 staining, cells were permeabilized with saponin permeabilization buffer (SPB; 0.1% saponin, 0.1% BSA wt/vol in PBS) for 30 minutes at room temperature followed by incubation with an Oct-4 PE-conjugated antibody overnight. Cells were then washed 2 times with SPB before analysis.
Flow cytometry data was obtained using a FACSCalibur™ (BD Biosciences) and analyzed using FlowJo Software (Tree Star, Inc.; Ashland, Oreg.). The percentage of positive cells was established by comparing experimental cells to partially differentiated hESCs. Gating for positive and negative populations was established by analyzing the bimodal peaks of partially differentiated hESCs.

pluripotent stem cells = assay: Number of cell divisions by fluorescent cell staining; format: cell-based, human
human ESCs (H9) = assay: Cell adhesion (CellTiter-Glo) with soluble heparin or chondroitinase ABC; format: cell-based; settings: 1 hour; for hESC binding in the presence of soluble heparin: soluble heparin 0.5 mg/mL
Procedure: To determine the effect of a soluble GAG on hESC binding to GBPs, hESCs were plated onto Matrigel-coated surfaces, vitronectin-coated surfaces, or surfaces presenting the heparin-binding peptide […] (SEQ ID NO: 1) in the presence or absence of soluble heparin (0.5 mg/mL). After 1 hour, the surfaces were washed and the cells lysed. The cell lysates were used to determine approximate cell numbers using Cell Titer Glo (Promega). The ratio of the mean luminescence of the cell lysates of cells plated in the presence of heparin versus those without heparin was expressed as percent cell binding for each surface.
To determine if glycosaminoglycans (GAGs) are required for GBP binding, human ESCs (H9) cultured on Matrigel were dissociated using an enzyme-free, Hanks'-based cell dissociation buffer (Sigma) for 10-15 minutes. Cells were resuspended in DMEM/F12 (Gibco), or DMEM/F12 supplemented with 2 units/mL chondroitinase ABC (Sigma), or 500 ug/mL heparin (Sigma). Cells treated with the GAG-degrading enzymes were incubated for 1 hour in suspension at 37° C. Cell suspensions were seeded onto Matrigel-coated surfaces, recombinant vitronectin-coated surfaces (10 μg/mL, R&D Systems), or SAMs presenting the peptide […] (SEQ ID NO: 1) at a 5% surface density. After 1 hour, surfaces were washed 3 times with PBS and the cells were lysed with M-PER buffer (Thermo Fisher Scientific, Inc., Rockford, Ill.). The cell lysate was mixed with CellTiter-Glo (Promega) to determine the number of viable cells in culture based on the presence of ATP. The luminescence was measured on 20/20^n luminometer (Turner Biosystems, Inc., Sunnyvale Calif.). • Cell Growth: […]

[6] = test system: undifferentiated hESCs (Oct-4 positive) and differentiated cells derived from embryoid bodies (Oct-4 negative); assay: Effect of ROCK inhibitor on cellular adhesion; format: cell-based, human
Procedure: Effect of ROCK inhibitor on cellular adhesion: A mixture of undifferentiated hESCs (Oct-4 positive) and differentiated cells derived from embryoid bodies (Oct-4 negative) was seeded onto self-assembled monolayer surfaces presenting the GBP […] (SEQ ID NO: 1) and the integrin binding peptide KGRGDS (SEQ ID NO: 5). For some experiments, cells were seeded onto polyacrylamide gels or glass coverslips presenting the […] (SEQ ID NO: 47) peptide. The cells were grown for 24 hours in mTeSR medium containing 5 μM ROCK inhibitor Y-27632 and then switched to mTeSR medium without ROCK inhibitor for an additional 24 hours. The cells were fixed and stained for Oct-4 and counterstained with phalloidin and DAPI. In some instances, cells were added to the surfaces without ROCK inhibitor.

[7] = 24 hours with 5 μM, then 24 hours without

For `CC[C@H](C)[C@H](N)C(=O)O` [I, isoleucine], the Hydropathy index [1] is given as 4.5.
For `N[C@@H](CS)C(=O)O` [C], the Hydropathy index [1] is listed as 2.5.
In the case of `CC(C)[C@H](N)C(=O)O` [V, valine], the Hydropathy index [1] is given as 4.2.
With heregulin the initial cell survival (hESCs [2]) was “modest improvement”.
For `CSCC[C@H](N)C(=O)O` [M, methionine], the Hydropathy index [1] is given as 1.9.
In the case of “biotinylated SEQ ID NO:1: streptavidin-coated plates treated with biotinylated vitronectin GBP (SEQ ID NO:1) (GKKQRFRHRNRKG; not fully specified (C-terminus); also: biotinylated, site not given here; listed as Homo sapiens)”, the “cell adhesion and growth on non-SAM substrate” value (hESCs [3]; compared with SAMs) is reported as “supported cell adhesion and growth, although not to the same extent”, the “cell death when ROCK inhibitor is omitted” value (hESCs [3]; streptavidin-coated plates) is reported as “without observable increase in cell death” and the colony spreading (hESCs [3]; streptavidin-coated plates, compared with SAMs) is reported as “lower than on SAMs”.
For `N[C@@H](CC(=O)O)C(=O)O` [D], the Hydropathy index [1] is listed as −3.5.
For `C[C@@H](O)[C@H](N)C(=O)O` [T], the Hydropathy index [1] is given as −0.7.
For `N[C@@H](Cc1ccccc1)C(=O)O` [F, phenalalanine], the Hydropathy index [1] is given as 2.8.
With “KGRGDS (not fully specified (C-terminus); listed as Homo sapiens)” the “plating efficiency after 24 hours” value [4] was “lowest plating efficiency”, the support of self-renewal (hESCs [5]; 3 passages) was “insufficient to support self-renewal” and the “pluripotent cell-specific marker expression (Oct-4, SSEA-3, SSEA-4) after 3 passages” value (hESCs [5]) was “significantly lower levels of pluripotent cell-specific markers”. The “pluripotent cell-specific marker expression (Oct-4, SSEA-3, SSEA-4) after 3 passages” value (hESCs [5]; listed as RGD-presenting surfaces) was “fewer cells in the population displayed markers of pluripotency”, the “cell growth rate on surface” value (hESCs [5]; compared with GAG-binding peptide surfaces) was “much more slowly” and the “number of cell divisions” value (pluripotent stem cells) was “fewer cell divisions”.
In the case of `NC(=O)C[C@H](N)C(=O)O` [N], the Hydropathy index [1] is given as −3.5.
In the case of `N=C(N)NCCC[C@H](N)C(=O)O` [R, arginine], the Hydropathy index [1] is listed as −4.5.
In the case of `NCCCC[C@H](N)C(=O)O` [K, lysine], the Hydropathy index [1] is listed as −3.9.
For `N[C@@H](CCC(=O)O)C(=O)O` [E], the Hydropathy index [1] is given as −3.5.
With heparin [reference compound] the “hESC binding in the presence of soluble heparin” value (human ESCs (H9)) was “inhibited adhesion”.
For `C[C@H](N)C(=O)O` [A, alanine], the Hydropathy index [1] is given as 1.8.
In the case of `C[C@@H](N)[C@H]1CC[C@H](C(=O)Nc2ccncc2)CC1.Cl.Cl` [ROCK inhibitor, (+)-(R)-trans-4-(1-aminoethyl)-N-(4-pyridyl)cyclohexanecarboxamide dihydrochloride], the “attachment of differentiated cells after removal of ROCK inhibitor” value [6, 7] is reported as “remained attached and viable”, the “attachment of undifferentiated cells after removal of the ROCK inhibitor” value [6, 7] is reported as “significant detachment” and the “Oct-4 positive undifferentiated cells among adherent cells when seeded without the ROCK inhibitor” value ([6]; cells added to the surfaces without ROCK inhibitor) is reported as “few of these cells were Oct-4 positive”.
In the case of `N[C@@H](CO)C(=O)O` [S], the Hydropathy index [1] is listed as −0.8.
With “CGKKQRFRHRNRKG (not fully specified (C-terminus); also: conjugated to polyacrylamide or glass; listed as Homo sapiens) [peptide conjugated to polyacrylamide gels or glass coverslips]” the “cell adhesion and growth on non-SAM substrate” value (hESCs [3]; compared with SAMs) was “supported cell adhesion and growth comparable to SAMs”.
With “vitronectin: recombinant vitronectin-coated surfaces (10 μg/mL, R&D Systems)” the “plating efficiency after 24 hours” value [4] was “equivalent”, the “cell numbers after each passage” value ([4]; two passages, mTeSR with ROCK inhibitor) was “Increased cell numbers” and the “number of cell divisions” value (pluripotent stem cells) was “fewer cell divisions”. The “adhesion of cells treated with chondroitinase ABC” value (human ESCs (H9); 2 units/mL chondroitinase ABC, 5% surface density) was “maintained their ability to adhere” and the “hESC binding in the presence of soluble heparin” value (human ESCs (H9)) was “not”.
For `N[C@@H](Cc1ccc(O)cc1)C(=O)O` [Y], the Hydropathy index [1] is given as −1.3.
In the case of `N[C@@H](Cc1c[nH]cn1)C(=O)O` [H, histidine], the Hydropathy index [1] is listed as −3.2.
In the case of `N[C@@H](Cc1c[nH]c2ccccc12)C(=O)O` [W], the Hydropathy index [1] is listed as −0.9.
